US20250163387A1, “HUMAN PITUITARY NEUROENDOCRINE TUMOR ORGANOIDS AND METHODS OF MAKING AND USING THE SAME” (ARIZONA BOARD OF REGENTS OF THE UNIVERSITY OF ARIZONA, A …, priority 2022, published 2025)

Tests used:
[1] = test system: SSTR2; test: Differential expression of SSTR2 in iPSC generated pituitary tumor organoids; type: cell-based, human
[2] = test system: iPSC^USP48MV organoids; test: Nuclear irregularity index (NII) morphometric analysis; type: cell-based, human; settings: 500 nM
Experimental: (§1) Nuclear Morphometric Analysis (NMA) using treated organoids was performed based on a published protocol that measures cell viability based on the changes in nuclear morphology of the cells using nuclear stain Hoechst or DAPI [30]. Images of organoid nuclei were analyzed using the ImageJ Nuclear Irregularity Index (NII) plugin for key parameters that included cell area, radius ratio, area box, aspect, and roundness. Using the published spreadsheet template, the NII of each cell was calculated with the following formula: NII=Aspect−Area Box+Radius Ratio+Roundness. The area vs NII of vehicle-treated cells were plotted as a scatter plot using the template and considered as the normal cell nuclei. The same plots were generated for each condition, and the NII and area of treated cells were compared to the normal nuclei, and classified as one of the following NMA populations: Normal (N; similar area and NII), Mitotic (S; similar area, slightly higher NII), Irregular (I; similar area, high NII), Small Regular (SR; apoptotic, low area and NII), Senescent (LR; high area, low NII), Small Irregular (SI; low area, high NII), or Large Irregular (LI; high area, high NII). […] The percentage of cells in each NII classification category were calculated and plotted as a histogram using GraphPad Prism.

[3] = test system: iPSC^ctrl organoids; test: as above; type: cell-based, human; settings: 500 nM
Experimental: as §1

[4] = test system: macroadenomas; settings: patients with macroadenomas; relacorilant for three months; cited from earlier work
[5] = test system: SSTR5; test: Differential expression of SSTR5 in iPSC generated pituitary tumor organoids; type: cell-based, human
[6] = test system: hPITOs generated from CD patients; test: High-throughput drug screen, MTS assay; type: cell-based, human; settings: 1 uM, 72 hrs
Experimental: Patient adenoma-derived pituitary organoids were grown in 96-well plates and treated with 147 small molecules taken from the NCI AOD9 compound library for 72 hrs. (https://dtp.cancer.gov/organization/dscb/obtaining/available_plates.html). Drugs were diluted from 10 mM DMSO stock plates into 100 uM DMSO working stocks with a final concentration of 1 uM. All vehicle controls were treated with 0.1% DMSO. Organoid proliferation was measured using CellTiter 96® AQueous One Solution Cell Proliferation Assay kit (MTS, Promega, G3582) according to the manufacturer's instruction. Organoid death was calculated based on the absorbance readings at 490 nm, collected from the MTS assay relative to the vehicle controls. Drug screens were performed with biological replicates in same screen. Drugs were selected based on their ability to target key signaling pathways and clinical relevance to the treatment. Drug sensitivity is represented by cell viability and is significant at <0.5 suppressive effect of the drugs. The percent cell viability relative to the vehicle control was calculated. Correlation coefficient across each organoid were calculated using Pearson method to assess confidence in replication. Variance Component was detected for each drug across all organoids. A random effect model was run with a single random factor for each drug and estimated variance was calculated by rejecting the null hypothesis that there isn't variation among samples. The drug responses were grouped by variance factor large (vc>100), median (100>vc>50), and small (vc<50). Heatmap was used to display the differential responses in cell viability for the drugs.
Tumor recurrence can occur in as many as 30-50% of CD patients after successful surgical treatment. Unfortunately, bilateral adrenalectomy is the chosen surgical treatment for patients with persistent CD [35]. Bilateral adrenalectomy leads to the increased risk for development of Nelson's syndrome (progressive hyperpigmentation due to ACTH secretion and expansion of the residual pituitary tumor). Although the risk of developing Nelson's syndrome following adrenalectomy can be reduced by 50% with stereotactic radiotherapy, there is a need to develop medical therapies that directly target the pituitary adenoma. Thus, we established a high-throughput drug screening assay using patient-derived pituitary organoids. […] The replicates behaved consistently with the drug response with the correlation scores of >0.8 for these samples (FIG. 3a). We estimated the variance component for each drug across all organoids. […] The drug responses were grouped by variance factor large, median, and small. The larger the variance the more variable is the drug response across the organoids. […]

[7] = iPSC organoids (ctrl, USP48MI, USP48MV, USP8), 500 nM, vs vehicle
[8] = iPSC^ctrl organoids, drug alone (Mife 500 nM, GANT 5 uM, Keto 10 uM, Dexa 100 nM)

SMILES: CC#C[C@]1(O)CC[C@H]2[C@@H]3CCC4=CC(=O)CCC4=C3[C@@H](c3ccc(N(C)C)cc3)C[C@@]21C [Mifepristone]
- expression of SSTR2 [1, 7]: significant induction
- differential expression of SSTR2 [1, 8]: significantly induced
- apoptotic cells by nuclear morphology (NII) [2]: not observed
- apoptotic cells by nuclear morphology (NII) [3]: not observed
- tumor (macroadenoma) regression [4]: have not been observed
- expression of SSTR5 [5, 7]: significant induction
- differential expression of SSTR5 [5, 8]: significantly induced
- response of the adenoma cells within the organoids ([6]; hPITO7, 10 and 25): ~0%
- response of the adenoma cells within the organoids ([6]; hPITO34 and hPITO35): 50%
